Values of other authors as cited in patent US10136666B2, “Deep eutectic solvents and flavour generation” (NESTEC S.A., priority 2013, dated 2018).

Details: from literature values

NCCC(=O)O [β-alanine]
amount that would dissolve in 60 g water: about 33 g
